According to patent publication US9283235B2, “Intermittent lowering of cortisol as treatment of clinical conditions associated with abnormal concentrations of cortisol in animals” (Stegram Pharmaceuticals Limited, priority 2001, dated 2016):
Where “and” joins values, the source holds several entries; their conditions need not be identical. Equal entries are not always repeated. Entries after “also recorded” stand apart in the source; their conditions may differ.

Columns and labels:
[1] = test system: hypothalamic-pituitary-adrenal axis; experiment: Combined dexamethasone suppression / TRH stimulation test, serum cortisol in horses; assay type: in vivo, horse
Protocol: (§1) The ability of intermittent administration of Trilostane to block adrenal steroidogenesis was assessed in twenty horses (mean age 21, SD 5.7 years) with equine Cushing's disease. The combined dexamethasone suppression thyrotropin releasing hormone (TRH) stimulation test (17 horses) or TRH stimulation test (3 horses) was used as a standard test of function of the hypothalamic-pituitary-adrenal axis. Serum samples for cortisol analysis were collected via indwelling catheter at 4-hourly intervals over 24 hours on each of the test periods. These were before treatment then at 210 minutes (30 min after I mg i.v. TRH) and 22 hours after […] dexamethasone i.m. Affected horses were treated with 0.4 to 1 mg/kg, (mean 0.5 mg/kg) trilostane administered once daily in feed for a period of 30 days. After 30 days endocrine testing was repeated. Serum cortisol before and after treatment was compared by paired t-test.
This is similar to the post ACTH stimulation in the dogs. The adrenal gland is not responding to stimulation by pituitary hormone in the same way as before trilostane treatment.

[2] = test system: horses with equine Cushing's disease; experiment: Clinical signs in horses with equine Cushing's disease, trilostane once daily in feed for 30 days; assay type: in vivo, horse
Protocol: as §1

[3] = test system: dogs with hyperadrenocorticism (HAC); experiment: Tolerability and adverse events of trilostane in dogs with HAC; assay type: in vivo, dog
Protocol: Follow-up re-examinations took place after 10 days, 4 weeks, 3 mouths, 6 months and then every 6 months or within 4 weeks of adjusting the dosage. At these points, owners were carefully questioned about their perception of the dogs general well being, dissolution of clinical signs and potential side effects and a physical examination was performed. A full biochemical profile and an ACTH stimulation test were carried out. Further tests such as urinanalysis, urine culture, thoracic radiographs, etc. were done if deemed necessary. If the clinical sips of hyperadrenocorticism (polyuria/polydipsia, polyphagia, exercise intolerance, etc.) were still present and if the post-ACTH cortisol concentration remained above 220 nmol/l, trilostane was given twice daily at the same dosage.
Starting dose was between 1.8 and 20 mg/kg (mean: 6.0; SD 3.4 mg/kg). […] Two cross bred dogs with classical clinical signs and endocrine testing results of HAC were started on 6.5 and 7.5 mg/kg trilostane. […] One of the dogs also was hyperkalaernic and hyponatraemic (ratio:22.3). In both dogs no more trilostane was given thereafter and the dogs are free of clinical signs after 2.7 and 1.4 years. In the 9 dogs with adrenal tumours, which started on the same dosing protocol as the dogs with PDH, two had the dose halved, three stayed on the original dose while in 4 dogs the dose was increased up to 300% of the original dose.

[4] = Trilostane and ketotrilostane concentrations in dogs after a single daily dose; assay type: in vivo, dog
Protocol: Trilostane concentrations in the plasma of 6 dogs: day 0, phase 1 (one 60 mg capsule per day), study no. GB009/01-001.
Ketotrilostane concentrations in the plasma of 6 dogs: day 0, phase 1 (one 60 mg capsule per day), study no. GB009/01-001.
The significance of this is that the metabolite, ketotrilostane, is not retained in the body for an extended period of time.

serum cortisol = experiment: Mean serum cortisol over 24 hours (4-hourly samples) in horses with Cushing's disease; assay type: in vivo, horse
Protocol: as §1

dogs with Alopecia X = experiment: Treatment of Alopecia X in dogs, hair re-growth; assay type: in vivo, dog; conditions: once-daily dose
From the text: To study the effect of trilostane in the treatment of Alopecia X a total of 11 dogs with the condition were examined along with 10 unaffected dogs. The hormonal abnormalities were identified, with increases in cortisol and 17 OHP concentrations. Trilostane in a once-daily dose was given to the affected animals. Five of the six Pomeranians (83%) and all four of the Miniature poodles have responded to trilostane, showing hair re-growth in the affected areas.

[5] = Table 5, individual horses, after 30 days 0.4–1.0 mg/k
[6] = mean of horses, after 30 days trilostane
[7] = mean of all horses, once daily 0.4-1.0 mg/k for 30 days

CC12CCC3C(CC[C@@]45O[C@@H]4C(=O)C(C#N)CC35C)C1CC[C@@H]2O (stereo partly drawn) [Trilostane, 2α-cyano-4α,5α-epoxyandrostan-17β-ol-3-one]
Cortisol post Trilostane Base [1, 5]: 160 nmol/L and 236 nmol/L and 116 nmol/L and 254 nmol/L and 149 nmol/L and 127 nmol/L and 112 nmol/L and 136 nmol/L and 65 nmol/L and 202 nmol/L and 81 nmol/L and 100 nmol/L and 209 nmol/L and 189 nmol/L and 121 nmol/L and 288 nmol/L | Cortisol post Trilostane post Dex [1, 5]: 170 nmol/l and 149 nmol/l and 118 nmol/l and 113 nmol/l (2×) and 82 nmol/l and 81 nmol/l (2×) and 163 nmol/l and 50 nmol/l and 101 nmol/l and 138 nmol/l and 47 nmol/l and 1 nmol/l and 153 nmol/l | Cortisol post Trilostane post TRH [1, 5]: 114 nmol/l and 316 nmol/l and 167 nmol/l and 193 nmol/l and 93 nmol/l and 79 nmol/l and 139 nmol/l and 158 nmol/l and 170 nmol/l and 88 nmol/l and 150 nmol/l and 117 nmol/l and 100 nmol/l (2×) and 138 nmol/l and 224 nmol/l | post Trilostane % TRH resp [1, 5]: −29% and 34% and 44% and −24% and −38% (2×) and 24% and 16% and 162% and −56% and 85% and 17% and −52% and −27% and −17% and −22% | Cortisol response to TRH / Dex pre vs post trilostane, in words ([1]; horses, single daily dose): lowering of the response to TRH; also recorded: decrease in cortisol response to TRH administration | Different, pre-post: % TRH resp, group mean ([1]; mean of horses): 39.2% | Different, pre-post: Base, group mean ([1]; mean of horses): -22 nmol/L | Different, pre-post: post Dex, group mean ([1]; mean of horses): 5 nmol/L | Different, pre-post: post TRH, group mean ([1]; mean of horses): 30 nmol/L | Cortisol post Trilostane post Dex, group mean ([1]; mean of horses, 22 hours post dexamethasone, after 30 days trilostane): 104 nmol/L | Cortisol post Trilostane Base, group mean [1, 6]: 159 nmol/L | Cortisol post Trilostane post TRH, group mean [1, 6]: 147 nmol/L | Lethargy / demeanour after therapy ([2]; lethargy present in 19 horses): improvement in demeanour was evident in all horses | Polyuria and/or polydipsia after treatment ([2]; present in 11 horses): reduced ill all | Recurrent, chronic or persistent laminitis improved or showed no recurrence ([2]; present in 17 horses): 14 cases | Severe, acute laminitis on presentation, response ([2]; three horses, rotation and sinking on radiographs): did not respond to trilostane | Overall clinical response ([2]; trilostane once-per-day): a clinical response was observed; also recorded: improvement in most of the clinical signs in all horses | Biochemistry abnormalities during the course of therapy ([3]; all without clinical consequence): one episode of hyperkalaemia, two episodes of azotaemia, three episodes of hyperbilirubinaemia and two episodes of hypercalcaemia | Acute deaths ([3]; dog, in vivo): Three dogs died acutely at home | Tolerability ([3]; starting dose 1.8 to 20 mg/kg): generally well tolerated | Hyperkalaemia and hyponatraemia ([3]; trilostane stopped, both dogs euthanised): two dogs showed hyperkalaemia and hyponatraemia prior to clinical deterioration | ACTH stimulation test leading to stop of the drug ([3]; two cross bred dogs started on 6.5 and 7.5 mg/kg, after two and three months): both showed a flat-lined ACTH stimulation test | Elimination of trilostane ([4]; after single daily dose): rapid elimination | Time of peak serum concentration of trilostane ([4]; after single daily dose (FIG. 1, one 60 mg capsule per day, 6 dogs)): 1 to 3 h | Change of serum cortisol concentrations pre vs post trilostane, in words (serum cortisol; horses, once daily dose, 30 days): only a small drop in cortisol levels; also recorded: no apparent change in cortisol concentrations | Mean Cortisol concentrations over 24 hrs, POST TREATMENT Mean (serum cortisol; individual horses, mean of 6 samples at 4-hourly intervals, after 30 days of oral trilostane): 108 and 203.7 and 157.3 and 263.3 and 143 and 193 and 122.8 and 134.4 and 112 and 152.3 and 113 and 194.7 and 94.8 and 112.3 and 183.3 and 245.5 and 158 and 164.5 and 160 and 149.8 | Serum cortisol, Post Trilosane Mean (serum cortisol; individual horses, mean of 6 samples over 24 hours, once daily 0.4-1.0 mg/k for 30 days, listed as Trilosane): 108 nmol/L and 203.7 nmol/L and 157.3 nmol/L and 263.3 nmol/L and 143 nmol/L and 193 nmol/L and 122.8 nmol/L and 134.4 nmol/L and 112 nmol/L and 152.3 nmol/L and 113 nmol/L and 194.7 nmol/L and 94.8 nmol/L and 112.3 nmol/L and 183.3 nmol/L and 245.5 nmol/L and 158 nmol/L and 164 nmol/L and 1 nmol/L and 149 nmol/L | Serum cortisol, Difference, pre-post (serum cortisol; individual horses, once daily 0.4-1.0 mg/k for 30 days, listed as Trilosane): -7.5 nmol/L and -61.2 nmol/L and -0.1 nmol/L and -6.8 nmol/L and 4 nmol/L and -38 nmol/L and -3 nmol/L and -17.1 nmol/L and 11 nmol/L and 10.4 nmol/L and 3.6 nmol/L and 34.6 nmol/L and -2.5 nmol/L and 2.4 nmol/L and -24.5 nmol/L and -80.5 nmol/L and -31.5 nmol/L and 5.5 nmol/L and 15.2 nmol/L and 3.4 nmol/L | Serum cortisol, Difference, pre-post, group mean (serum cortisol; [7]): -9.1 ± 26.9 nmol/L | Serum cortisol, Post Trilosane Mean, group mean (serum cortisol; [7]): 158.3 nmol/L | Miniature poodles responding, hair re-growth in the affected areas (dogs with Alopecia X): all four | Pomeranians responding, hair re-growth in the affected areas (dogs with Alopecia X; five of six): 83%
